{"source": "patent US12098139B2", "about": "“Chemokine receptor modulators and uses thereof” (RAPT Therapeutics, Inc., priority 2018, dated 2024)", "key": {"[1]": {"test_system": "ovalbumin-induced pulmonary inflammation", "assay": "Murine model of ovalbumin-induced pulmonary inflammation (BALF cell counts and mediators)", "type": "in vivo, mouse (female Balb/c)", "settings": "for IL-5 levels in BALF: vs OVA group (FIG. 3)", "experimental": "A study was performed to investigate the effects of daily oral administration of the compound 2-((R)-3-(1-(1-((R)-1-(2,4-Dichlorophenyl)ethyl)-3-(cyano)-1H-pyrazolo[3,4-b]pyrazin-6-yl)azetidin-3-yl)piperidin-1-yl)ethan-1-ol (FLX-A-12) (disclosed in US Patent Publication 2018-0072740 published Mar. 15, 2018) and the compound (1R,3r)-3-((R)-3-(1-(5-chloro-4-(((R)-1-(2,4-dichlorophenyl)ethyl)amino)-6-methylpyrimidin-2-yl)azetidin-3-yl)piperidin-1-yl)-1-methylcyclobutane-1-carboxylic acid (FLX-B-10) (disclosed in Example 38 herein) on the level of lung eosinophilia in a murine model of ovalbumin-induced pulmonary inflammation. An automated system of haematological cellular analysis (DASIT Sysmex XT-2000iV) was used to perform total and differential cell counts and assess the degree of ovalbumin challenge-induced pulmonary eosinophilia. FLX-A-12 and FLX-B-10 were administered daily for five days at the doses of 50 and 30-100 mg/kg respectively, and eosinophilic inflammation was measured 24 hours after the last ovalbumin challenge. Dexamethasone was included as a positive reference substance (3 mg/kg p.o. daily). On days 20-23 inclusive, mice received vehicle (30% PG in water), reference compound (Dexamethasone, 3 mg/kg) and test compounds (FLX-A-12 at 50 mg/kg and FLX-B-10 at 30 and 100 mg/kg), 1 hr prior ovalbumin challenge via the p.o. route. In addition, the test compounds (FLX-A-12 and FLX-B-10) were dosed on day 19 24 hr prior to the dosing on day 20.\nFLX-A-12 was formulated at the concentration of 5 mg/mL (corresponding to the dose of 50 mg/kg in a dose volume of 10 mL/kg) in 30% PG in water. The doses of FLX-B-10 (30 and 100 mg/kg) were prepared by dissolving 3 and 10 mg/ml of the compound respectively in 30% PG in water at a dose volume of 10 ml/kg. The dose of Dexamethasone (3 mg/kg) was prepared by dissolving 0.3 mg/mL of the compound in 30% PG in water at a dose volume of 10 ml/kg.\nThe effects of FLX-A-12 and FLX-B-10 were assessed in the ovalbumin mouse model of pulmonary inflammation. The study was performed in female Balb/c mice, and included the following 6 treatment groups (n=10/group): (i) Vehicle group: challenged with saline and dosed with compound Vehicle, 1 hr before challenge; (ii) OVA/Vehicle group (control): challenged with ovalbumin and dosed with compound Vehicle, 1 hr before challenge; (iii) OVA/FLX-A-12 50 mg/kg (p.o.): challenged with ovalbumin and dosed with FLX-A-12, 1 hr before challenge; (iv) OVA/FLX-B-10 30 mg/kg (p.o.): challenged with ovalbumin and dosed with FLX-B-10, 1 hr before challenge; (v) OVA/FLX-B-10 100 mg/kg (p.o.): challenged with ovalbumin and dosed with FLX-B-10, 1 hr before challenge; and (vi) Dexamethasone 3 mg/kg (p.o.) group: challenged with ovalbumin and dosed with Dexamethasone, 1 hr before challenge.\nThe eosinophilic inflammation induced by ovalbumin-challenge (i.n.) was measured as cell count increase in bronchoalveolar lavage fluid (BALF) using an automated system of haematological cellular analysis (DASIT Sysmex XT-2000iV) at 24 hours after the last OVA-challenge. The effects of the test compounds were evaluated as ability to decrease the eosinophilic inflammation with respect to the OVA group.\nFor antigen sensitization, on day 1, animals received 10 μg of OVA in 2 mg of Aluminium hydroxide hydrate (AlOH3) at a dose volume of 200 μl per mouse subcutaneously (s.c.). On day 14, all animals got a second (boost) s.c. injection with the same dose of Alum/OVA as above.\nOn days 20-23 inclusive, mice received vehicle, 30% PG in water, reference compound (Dexamethasone 3 mg/kg) and test compounds (FLX-A-12 at 50 mg/kg and FLX-B-10 at 30 and 100 mg/kg), 1 hr prior OVA challenge via the p.o. route. In addition, test compounds (FLX-A-12 and FLX-B-10) were dosed on day 19, 24 hr prior to the dosing on day 20. All compounds were administered at a dose volume of 10 ml/kg. Dose volumes were calculated based on individual animal weight. […]"}, "[2]": {"target": "T1, hCCR4 (Chem5-hCCR4 cells) (Homo sapiens, UniProt P51679)", "T1 sequence (P51679 1-360)": "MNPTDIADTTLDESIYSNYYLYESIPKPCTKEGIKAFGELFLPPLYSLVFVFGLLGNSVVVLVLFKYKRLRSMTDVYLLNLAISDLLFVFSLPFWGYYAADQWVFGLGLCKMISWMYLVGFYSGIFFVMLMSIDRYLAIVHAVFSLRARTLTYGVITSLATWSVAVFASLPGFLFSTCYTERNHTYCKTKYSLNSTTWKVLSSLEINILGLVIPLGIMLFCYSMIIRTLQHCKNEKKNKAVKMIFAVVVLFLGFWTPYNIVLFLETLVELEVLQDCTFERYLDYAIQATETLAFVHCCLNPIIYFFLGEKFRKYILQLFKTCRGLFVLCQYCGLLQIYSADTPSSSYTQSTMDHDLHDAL", "assay": "Calcium flux assay (CCL22-stimulated, FLIPR Calcium 6 dye)", "type": "cell-based", "settings": "Table 5, CCL22 1.5 nM, read-out: Potency (IC50)", "how_it_was_run": "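Chem5-hCCR4 cells were serum-starved 2 h and loaded 2 h with Calcium 6 dye plus 2.5 mM probenecid. They were then preincubated 1 h at 37 °C with compound (0.5% DMSO). CCL22 was added from a 7.5 nM working solution (5× EC80), and ΔF/Fmin at 485/525 nm was fitted 4-parameter for IC50.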"}}}
{"smiles": "C[C@@H]1C[C@H]2[C@@H]3CCC4=CC(=O)C=C[C@]4(C)[C@@]3(F)[C@@H](O)C[C@]2(C)[C@@]1(O)C(=O)CO", "note": "[Dexamethasone, dexamethasone, reference compound]", "values": [{"measurement": "percentage of reduction in the eosinophilic cell count in BALF", "setting": "[1]; 3 mg/kg p.o. daily, 24 hours after last ovalbumin challenge, vs OVA group", "result": 92, "unit": "%"}]}
{"smiles": "C[C@@H](Nc1nc(N2CC(C3CCCN([C@H]4C[C@@H](O)C4)C3C(=O)O)C2)ncc1Cl)c1ccc(Cl)cc1Cl", "note": "(stereo partly drawn) [Example 87, 3-[1-[5-chloro-4-[[(1R)-1-(2,4-dichlorophenyl)ethyl]amino]pyrimidin-2-yl]azetidin-3-yl]-1-(3-hydroxycyclobutyl)piperidine-2-carboxylic acid; 2,2,2-trifluoroacetic acid]", "values": [{"measurement": "IC50", "setting": "[2]", "result": "< 100", "unit": "nM"}]}
{"smiles": "C[C@@H](Nc1nc(N2CC(C3CCCN(C4CC(CO)C4)C3C(=O)O)C2)ncc1Cl)c1ccc(Cl)cc1Cl", "note": "(stereo partly drawn) [Example 88, 3-[1-[5-chloro-4-[[(1R)-1-(2,4-dichlorophenyl)ethyl]amino]pyrimidin-2-yl]azetidin-3-yl]-1-[3-(hydroxymethyl)cyclobutyl]piperidine-2-carboxylic acid; 2,2,2-trifluoroacetic acid]", "values": [{"measurement": "IC50", "setting": "[2]", "result": "< 100", "unit": "nM"}]}
{"smiles": "C[C@@H](Nc1nc(N2CC([C@H]3CCCN([C@H]4C[C@@H](C(=O)O)C4)C3)C2)ncc1C#N)c1ccc(Cl)cc1Cl", "note": "[Example 93, 3-[(3R)-3-[1-[5-cyano-4-[[(1R)-1-(2,4-dichlorophenyl)ethyl]amino]pyrimidin-2-yl]azetidin-3-yl]-1-piperidyl]cyclobutanecarboxylic acid]", "values": [{"measurement": "IC50", "setting": "[2]", "result": "100 to 500", "unit": "nM"}]}
{"smiles": "C[C@@H](Nc1nc(N2CC([C@H]3CCCN([C@H]4C[C@](C)(C(=O)O)C4)C3)C2)nc2ccccc12)c1ccc(Cl)cc1Cl", "note": "[Example 94, 3-[(1R,3R)-3-[1-[4-[[(1R)-1-(2,4-dichlorophenyl)ethyl]amino]quinazolin-2-yl]azetidin-3-yl]-1-piperidyl]-1-methyl-cyclobutanecarboxylic acid; 2,2,2-trifluoroacetic acid]", "values": [{"measurement": "IC50", "setting": "[2]", "result": "< 100", "unit": "nM"}]}
{"smiles": "C[C@@H](Nc1nc(N2CC([C@H]3CCCN([C@H]4C[C@@H](C(=O)O)C4)C3)C2)nc2ccccc12)c1ccc(Cl)cc1Cl", "note": "[Example 95, 3-[(1S,3R)-3-[1-[4-[[(1R)-1-(2,4-dichlorophenyl)ethyl]amino]quinazolin-2-yl]azetidin-3-yl]-1-piperidyl]cyclobutanecarboxylic acid; 2,2,2-trifluoroacetic acid]", "values": [{"measurement": "IC50", "setting": "[2]", "result": "< 100", "unit": "nM"}]}
{"smiles": "C[C@H](c1ccc(Cl)cc1Cl)n1nc(C#N)c2ncc(N3CC([C@H]4CCCN(CCO)C4)C3)nc21", "note": "[FLX-A-12, 2-((R)-3-(1-(1-((R)-1-(2,4-Dichlorophenyl)ethyl)-3-(cyano)-1H-pyrazolo[3,4-b]pyrazin-6-yl)azetidin-3-yl)piperidin-1-yl)ethan-1-ol, reference compound]", "values": [{"measurement": "IL-5 levels in BALF", "setting": "[1]; 50 mg/kg p.o.", "result": "significantly reduced"}]}
{"smiles": "Cc1nc(N2CC([C@H]3CCCN([C@H]4C[C@](C)(C(=O)O)C4)C3)C2)nc(N[C@H](C)c2ccc(Cl)cc2Cl)c1Cl", "note": "[FLX-B-10, (1R,3r)-3-((R)-3-(1-(5-chloro-4-(((R)-1-(2,4-dichlorophenyl)ethyl)amino)-6-methylpyrimidin-2-yl)azetidin-3-yl)piperidin-1-yl)-1-methylcyclobutane-1-carboxylic acid]", "values": [{"measurement": "CCL-22 in BALF", "setting": "[1]; 30 mg/kg p.o. (FIG. 6)", "result": "significantly reduced in all conditions, except for FLX-B-10 at 30 mg/kg"}, {"measurement": "IL-5 levels in BALF", "setting": "[1]; 100 mg/kg p.o.", "result": "significantly reduced"}, {"measurement": "IL-13 in BALF, dose dependence", "setting": "[1]; 30 and 100 mg/kg p.o. (FIG. 4)", "result": "dose-dependent decrease"}, {"measurement": "CCL-22 in BALF, dose dependence", "setting": "[1]; 30 and 100 mg/kg p.o. (FIG. 6)", "result": "dose-dependent decrease"}, {"measurement": "reduction of eosinophilic inflammation (BALF) with respect to the OVA group", "setting": "[1]; 30 and 100 mg/kg p.o., 24 hours after last ovalbumin challenge", "result": "statistically significant reduction of eosinophilic inflammation only at 100 mg/kg"}]}
